Values of other authors in PubChem BioAssay AID1259409 (Chemical Carcinogenesis Research Information System (CCRIS), 2018).
Values joined by “and” are separate entries in the source; they are usually repeats but may differ in a detail not shown here. Equal values may be shown once.

System: rodent chemically induced tumor inhibition, incidence and multiplicity
Test: CCRIS tumor inhibitor studies
Conditions: Route [Inhibitor]: ORAL

Question: Which results are given for `[Se]`?
Answer: tumour outcome (control, treated, inhibition, significance) (Carcinogen: 1,2-DIMETHYLHYDRAZINE, 540-73-8, Dose [Inhibitor]: 0, 0.2, 5 PPM IN DIET BEGINNING 1 D PRIOR TO CARCINOGEN TREATMENT AND CONTINUING FOR DURATION OF STUDY (STUDY DURATION:, Dose [Inhibitor]: 0, 0.2, 5 PPM IN DIET BEGINNING 1 D PRIOR TO CARCINOGEN TREATMENT AND CONTINUING FOR DURATION OF STUDY (STUDY DURATION:, Species: RAT, Strain/Sex: SPRAGUE-DAWLEY/MALE, Target Tissue: Type of Lesion: DISTAL COLON: ADENOCARCINOMA, Dose [Carcinogen]: 20 MG/KG 1/WK FOR 20 WK, Promoter: NONE USED): 94%, 81%, 14%, not significant; tumour outcome (control, treated, inhibition, significance) (Carcinogen: 3,2'-DIMETHYL-4-AMINOBIPHENYL, 13394-86-0, Dose [Inhibitor]: 0, 2 PPM IN BASAL DIET BEGINNING POST CARCINOGEN TREATMENT AND CONTINUING FOR 40 WK (STUDY DURATION: 60 WK), Species: RAT, Strain/Sex: F344/MALE, Target Tissue: Type of Lesion: LARGE INTESTINE: ADENOMA AND CARCINOMA, Dose [Carcinogen]: 50 MG/KG 1/2 WK FOR 20 WK TO RATS MAINTAINED ON ETHINYL ESTRADIOL CONTAINING DIET (0.75 PPM) FOR 1 WK CYCLED WITH ETHINY, Promoter: ETHINYL ESTRADIOL, 57-63-6): 3/10 (30%), 0/11 (0%), 100%, not significant; tumour outcome (control, treated, inhibition, significance) (Carcinogen: 3,2'-DIMETHYL-4-AMINOBIPHENYL, 13394-86-0, Dose [Inhibitor]: 0, 2 PPM IN BASAL DIET BEGINNING POST CARCINOGEN TREATMENT AND CONTINUING FOR 40 WK (STUDY DURATION: 60 WK), Species: RAT, Strain/Sex: F344/MALE, Target Tissue: Type of Lesion: PANCREAS: ACINAR CELL NODULE, Dose [Carcinogen]: 50 MG/KG 1/2 WK FOR 20 WK TO RATS MAINTAINED ON ETHINYL ESTRADIOL CONTAINING DIET (0.75 PPM) FOR 1 WK CYCLED WITH ETHINY, Promoter: ETHINYL ESTRADIOL, 57-63-6): 4/10 (40%), 4/11 (36%), 10%, not significant; tumour outcome (control, treated, inhibition, significance) (Carcinogen: 3,2'-DIMETHYL-4-AMINOBIPHENYL, 13394-86-0, Dose [Inhibitor]: 0, 2 PPM IN BASAL DIET BEGINNING POST CARCINOGEN TREATMENT AND CONTINUING FOR 40 WK (STUDY DURATION: 60 WK), Species: RAT, Strain/Sex: F344/MALE, Target Tissue: Type of Lesion: PREPUTIAL GLAND: ADENOMA AND CARCINOMA, Dose [Carcinogen]: 50 MG/KG 1/2 WK FOR 20 WK TO RATS MAINTAINED ON ETHINYL ESTRADIOL CONTAINING DIET (0.75 PPM) FOR 1 WK CYCLED WITH ETHINY, Promoter: ETHINYL ESTRADIOL, 57-63-6): 5/10 (50%), 6/11 (55%), -10%, not significant; tumour outcome (control, treated, inhibition, significance) (Carcinogen: 3,2'-DIMETHYL-4-AMINOBIPHENYL, 13394-86-0, Dose [Inhibitor]: 0, 2 PPM IN BASAL DIET BEGINNING POST CARCINOGEN TREATMENT AND CONTINUING FOR 40 WK (STUDY DURATION: 60 WK), Species: RAT, Strain/Sex: F344/MALE, Target Tissue: Type of Lesion: SMALL INTESTINE: ADENOMA AND ADENOCARCINOMA, Dose [Carcinogen]: 50 MG/KG 1/2 WK FOR 20 WK TO RATS MAINTAINED ON ETHINYL ESTRADIOL CONTAINING DIET (0.75 PPM) FOR 1 WK CYCLED WITH ETHINY, Promoter: ETHINYL ESTRADIOL, 57-63-6): 2/10 (20%), 2/11 (18%), 10%, not significant; tumour outcome (control, treated, inhibition, significance) (Carcinogen: 3,2'-DIMETHYL-4-AMINOBIPHENYL, 13394-86-0, Dose [Inhibitor]: 0, 2 PPM IN BASAL DIET BEGINNING POST CARCINOGEN TREATMENT AND CONTINUING FOR 40 WK (STUDY DURATION: 60 WK), Species: RAT, Strain/Sex: F344/MALE, Target Tissue: Type of Lesion: SUBCUTIS: TUMOR, Dose [Carcinogen]: 50 MG/KG 1/2 WK FOR 20 WK TO RATS MAINTAINED ON ETHINYL ESTRADIOL CONTAINING DIET (0.75 PPM) FOR 1 WK CYCLED WITH ETHINY, Promoter: ETHINYL ESTRADIOL, 57-63-6): 1/10 (10%), 0/11 (0%), 100%, not significant; tumour outcome (control, treated, inhibition, significance) (Carcinogen: 3,2'-DIMETHYL-4-AMINOBIPHENYL, 13394-86-0, Dose [Inhibitor]: 0, 2 PPM IN BASAL DIET BEGINNING POST CARCINOGEN TREATMENT AND CONTINUING FOR 40 WK (STUDY DURATION: 60 WK), Species: RAT, Strain/Sex: F344/MALE, Target Tissue: Type of Lesion: ZYMBAL GLAND: ADENOMA AND CARCINOMA, Dose [Carcinogen]: 50 MG/KG 1/2 WK FOR 20 WK TO RATS MAINTAINED ON ETHINYL ESTRADIOL CONTAINING DIET (0.75 PPM) FOR 1 WK CYCLED WITH ETHINY, Promoter: ETHINYL ESTRADIOL, 57-63-6): 2/10 (20%), 2/11 (18%), 10%, not significant; tumour outcome (control, treated, inhibition, significance) (Carcinogen: 3,2-DIMETHYL-4-AMINOBIPHENYL, 13394-86-0, Dose [Inhibitor]: 0, 2 PPM IN BASAL DIET BEGINNING POST CARCINOGEN TREATMENT AND CONTINUING FOR 40 WK (STUDY DURATION: 60 WK), Species: RAT, Strain/Sex: F344/MALE, Target Tissue: Type of Lesion: PROSTATE: CARCINOMA, Dose [Carcinogen]: 50 MG/KG 1/2 WK FOR 20 WK TO RATS MAINTAINED ON ETHINYL ESTRADIOL CONTAINING DIET (0.75 PPM) FOR 1 WK CYCLED WITH ETHINY, Promoter: ETHINYL ESTRADIOL, 57-63-6): 5/10 (50%), 4/11 (36%), 28%, not significant; tumour outcome (control, treated, inhibition, significance) (Carcinogen: DINITROSOPIPERAZINE, 140-79-4, Dose [Inhibitor]: 0, 2 UG/G DIET IN YEAST CONCURRENTLY WITH CARCINOGEN AND CONTINUED FOR STUDY DURATION (STUDY DURATION: 13.5 MO), Species: RAT, Strain/Sex: CD-1/MALE, FEMALE, Target Tissue: Type of Lesion: NASAL PHARYNX: CARCINOMA, Dose [Carcinogen]: 1.5 MG IN WATER 2/WK FOR 5 WK FOLLOWED BY 3 MG IN WATER 2/WK FOR 17.5 WK (TOTAL DOSE: 120 MG)): 5/31(16%), 1/22(5%), 69%, p 0.025; tumour outcome (control, treated, inhibition, significance) (Carcinogen: NONE USED, Dose [Inhibitor]: 0.5 PPM IN DRINKING WATER DAILY FOR DURATION OF STUDY (STUDY DURATION: 2 YR), Species: MOUSE, Strain/Sex: C3H/FEMALE, Target Tissue: Type of Lesion: MAMMARY GLAND: ADENOCARCINOMA, Promoter: NONE USED): 64%, 25%, 61%, p<0.01; tumour outcome (control, treated, inhibition, significance) (Carcinogen: NONE USED, Dose [Inhibitor]: 2 PPM IN A 10% BUTTER DIET DAILY FOR DURATION OF STUDY (STUDY DURATION: 2 YR), Species: MOUSE, Strain/Sex: C3H/FEMALE, Target Tissue: Type of Lesion: MAMMARY GLAND: ADENOCARCINOMA, Promoter: NONE USED): 65%, 72%, -11%, not significant; tumour outcome (control, treated, inhibition, significance) (Carcinogen: NONE USED, Dose [Inhibitor]: 2 PPM IN A 10% CORN OIL DIET DAILY FOR DURATION OF STUDY (STUDY DURATION: 2 Y R), Species: MOUSE, Strain/Sex: C3H/FEMALE, Target Tissue: Type of Lesion: MAMMARY GLAND: ADENOCARCINOMA, Promoter: NONE USED): 70%, 72%, -3%, not significant; tumour outcome (control, treated, inhibition, significance) (Carcinogen: NONE USED, Dose [Inhibitor]: 2 PPM IN A 10% LARD DIET DAILY FOR DURATION OF STUDY (STUDY DURATION: 2 YR), Species: MOUSE, Strain/Sex: C3H/FEMALE, Target Tissue: Type of Lesion: MAMMARY GLAND: ADENOCARCINOMA, Promoter: NONE USED): 53%, 52%, 2%, not significant; tumour outcome (control, treated, inhibition, significance) (Carcinogen: NONE USED, Dose [Inhibitor]: 2 PPM IN A 10% RAPE SEED OIL DIET DAILY FOR DURATION OF STUDY (STUDY DURATION : 2 YR), Species: MOUSE, Strain/Sex: C3H/FEMALE, Target Tissue: Type of Lesion: MAMMARY GLAND: ADENOCARCINOMA, Promoter: NONE USED): 63%, 65%, -3%, not significant; tumour outcome (control, treated, inhibition, significance) (Carcinogen: NONE USED, Dose [Inhibitor]: 2 PPM IN DRINKING WATER DAILY FOR DURATION OF STUDY (STUDY DURATION: 2 YR), Species: MOUSE, Strain/Sex: C3H/FEMALE, Target Tissue: Type of Lesion: MAMMARY GLAND: ADENOCARCINOMA, Promoter: NONE USED): 44%, 40%, 9%, not calculated and 64%, 25%, 61%, p<0.01
